Reference: ChEMBL document CHEMBL1126971, “Structure-activity relationships from molecular similarity matrices” (J Med Chem, 1993)

How the values were obtained:
[1] = biological target: T1, Corticosteroid-binding globulin (Homo sapiens) (UniProt P08185)
T1 sequence (whole entry): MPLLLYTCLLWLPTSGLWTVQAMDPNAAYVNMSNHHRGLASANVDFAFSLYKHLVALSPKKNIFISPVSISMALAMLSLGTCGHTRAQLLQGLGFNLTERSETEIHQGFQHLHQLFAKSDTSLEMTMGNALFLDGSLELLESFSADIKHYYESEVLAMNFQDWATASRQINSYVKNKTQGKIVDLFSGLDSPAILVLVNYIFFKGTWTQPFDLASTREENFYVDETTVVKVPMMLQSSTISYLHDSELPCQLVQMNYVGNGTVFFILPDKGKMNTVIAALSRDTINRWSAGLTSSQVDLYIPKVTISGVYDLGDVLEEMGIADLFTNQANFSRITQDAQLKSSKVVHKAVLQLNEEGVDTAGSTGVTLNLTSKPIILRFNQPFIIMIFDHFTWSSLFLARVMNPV

[2] = biological target: T2, Sex hormone-binding globulin (Homo sapiens) (UniProt P04278)
T2 sequence (whole entry): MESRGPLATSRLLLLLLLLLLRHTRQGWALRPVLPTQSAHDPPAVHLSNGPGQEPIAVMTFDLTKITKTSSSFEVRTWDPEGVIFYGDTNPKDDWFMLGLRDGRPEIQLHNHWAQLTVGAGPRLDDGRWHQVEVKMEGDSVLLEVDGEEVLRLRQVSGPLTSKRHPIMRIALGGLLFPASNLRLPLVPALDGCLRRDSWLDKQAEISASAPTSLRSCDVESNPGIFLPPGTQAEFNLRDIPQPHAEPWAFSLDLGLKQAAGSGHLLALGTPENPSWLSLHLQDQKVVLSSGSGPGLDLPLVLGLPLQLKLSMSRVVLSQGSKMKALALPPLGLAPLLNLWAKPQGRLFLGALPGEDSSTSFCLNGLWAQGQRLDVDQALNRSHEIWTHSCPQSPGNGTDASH
Description: Binding affinity against testosterone-binding globulin (TeBG)

[3] = biological target: T1, Corticosteroid-binding globulin (Homo sapiens); remark: listed apart in the source
[4] = biological target: T1, Corticosteroid-binding globulin (Homo sapiens); experiment: Binding affinity against corticosteroid-binding globulin (CBG)

Row | SMILES | Log 1/K [1] | Log 1/K [2] | Log 1/K [3] | Log 1/K [4]
1 | CC(=O)[C@H]1CC[C@H]2[C@@H]3CCC4=CC(=O)CC[C@]4(C)[C@H]3CC[C@]12C | -7.38 | 6.94 |  | 
2 | C[C@@H]1C[C@@]2(C)C(=CC1=O)CCC1C3CCC(C(=O)CO)[C@@]3(C)CC(O)[C@@]12F (some centres not stated) |  |  | 5.8 | 
3 | C[C@]12CCC(=O)C=C1CC[C@@H]1[C@@H]2[C@@H](O)C[C@@]2(C)[C@H]1CC[C@]2(O)C(=O)CO |  | 6.2 | 7.88 | 
4 | CC(=O)OCC(=O)[C@@]1(O)CCC2C3CCC4=CC(=O)CC[C@]4(C)C3C(O)C[C@@]21C (some centres not stated) |  |  | 7.55 | 
5 | CC(=O)[C@H]1CC[C@H]2[C@@H]3CCC4=CC(=O)CC[C@@H]4[C@H]3CC[C@]12C |  |  | 6.82 | 
6 | C[C@]12CCC(=O)C=C1CC[C@@H]1[C@@H]2C(=O)C[C@@]2(C)[C@H]1CC[C@]2(O)C(=O)CO |  | 6.43 | 6.89 | 
7 | C[C@]12CC[C@H]3[C@@H](CCC4=CC(=O)CC[C@@]43C)[C@@H]1CC[C@@H]2C(=O)CO |  | 7.38 | 7.65 | 
8 | C[C@]12CC[C@H](O)C[C@@H]1CC[C@@H]1[C@@H]2CC[C@]2(C)[C@@H](O)CC[C@@H]12 |  | 9.11 | 5 | 
9 | CC(=O)[C@@]1(C)CCC2C3CCC4=CC(=O)CC[C@]4(C)C3CC[C@@]21C (some centres not stated) |  |  | 7.12 | 
10 | C[C@]12CC[C@H](O)CC1=CC[C@@H]1[C@@H]2CC[C@]2(C)C(=O)CC[C@@H]12 |  | 7.82 | 5 | 
11 | C[C@]12C[C@@H](O)[C@H]3[C@@H](CCC4=CC(=O)CC[C@@]43C)[C@@H]1CC[C@@H]2C(=O)CO |  |  | 7.2 | 
12 | C[C@]12CCC(=O)C=C1CC[C@@H]1[C@@H]2CC[C@]2(C)C(=O)CC[C@@H]12 |  | 7.46 | 5.76 | 
13 | C[C@]12CC[C@@H]3c4ccc(O)cc4CC[C@H]3[C@@H]1C[C@@H](O)[C@H]2O |  | 6.63 | 5 | 
14 | CC(=O)[C@H]1CC[C@H]2[C@@H]3CC=C4C[C@@H](O)CC[C@]4(C)[C@H]3CC[C@]12C |  | 7.15 | 5.22 | 
15 | CC(=O)[C@@]1(O)CC[C@H]2[C@@H]3CC=C4C[C@@H](O)CC[C@]4(C)[C@H]3CC[C@@]21C |  | 6.36 | 5 | 
16 | C[C@]12C=CC(=O)C=C1CC[C@@H]1[C@@H]2[C@@H](O)C[C@@]2(C)[C@H]1CC[C@]2(O)C(=O)CO |  |  | 7.51 | 
17 | C[C@]12CCC(=O)C=C1CC[C@@H]1[C@@H]2CC[C@@]2(C)[C@H]1CC[C@]2(O)C(=O)CO |  | 7.2 | 7.88 | 
18 | CC(=O)[C@@]1(O)CC[C@H]2[C@@H]3CCC4=CC(=O)CC[C@]4(C)[C@H]3CC[C@@]21C |  | 7 | 7.74 | 
19 | CC(=O)[C@@]1(O)[C@H](O)C[C@H]2[C@@H]3CCC4=CC(=O)CC[C@]4(C)[C@H]3CC[C@@]21C |  |  | 6.25 | 
20 | C[C@]12C[C@H](O)[C@H]3[C@@H](CCC4=CC(=O)CC[C@@]43C)[C@@H]1CC[C@@H]2C(=O)CO |  | 6.34 | 7.88 | 
21 | C[C@]12CCC(=O)C=C1CCC1C3CC[C@H](C(=O)CO)[C@@]34C[C@H](OC4O)C12 (some centres not stated) |  | 5.32 |  | 6.28
22 | CC(=O)[C@H]1CC[C@H]2[C@@H]3CCC4=CC(=O)CC[C@]4(C)[C@H]3C(=O)C[C@]12C |  |  | 6.78 | 
23 | C[C@]12CC[C@H]3[C@@H](CCC4=CC(=O)CC[C@@H]43)[C@@H]1CC[C@@H]2O |  |  | 6.14 | 
